Measurements taken from patent US11564924B2, “Pharmaceutical composition formed by combining pyridoxamine compound and thiamine compound” (RENASCIENCE CO., LTD., priority 2014, dated 2023).

Legend:
[1] = tested on: vitamin B1 in human whole blood; assay: In vitro effect on vitamin B1 concentration in human whole blood; settings: human whole blood, 5, 50, 500 μg/mL, 37° C.
Description: In addition, as described in Experiment Example 1 and Experiment Example 2, administration of a pyridoxamine compound increases not only the serum pyridoxamine concentration, but also the serum pyridoxal concentration, and thus, pyridoxamine and pyridoxal were both used as test substances for the investigation.
Blood was collected from a human using EDTA⋅2K as an anticoagulant. In addition, pyridoxamine dihydrochloride (Sigma-Aldrich Japan) was used as pyridoxamine, and pyridoxal hydrochloride (Nacalai Tesque, Inc.) was used as pyridoxal. They were dissolved at 0.5, 5, and 50 mg/mL in physiological saline to prepare test solutions. 10 μL of each test solution was individually added per mL of the whole blood collected above (test samples). The final concentrations of each test substance in the test samples were 5, 50, 500 μg/mL. Further, a vehicle was prepared by adding 10 μl of physiological saline to 1 ml of the whole blood. The vehicle and the test samples were incubated at 37° C. for 1 hour or 16 hours and then immediately frozen. Measurement of the vitamin B1 concentrations in the whole blood before the start of the incubation to which neither the physiological saline nor any test solution was added (baseline: indicated by “BL” in FIG. 4), and in the vehicle and in each test sample after the incubation, was outsourced to SRL Inc., and the measurement was performed using LC/MS/MS.

vitamin B1 = assay: Whole blood vitamin B1 amount in schizophrenia patients during drug administration (LC/MS/MS); type: in vivo, human
Method: Measurement of the amount of vitamin B1 in whole blood (blood collection with heparin) was outsourced to SRL Inc., and the measurement was performed using LC/MS/MS.

[2] = tested on: Wernicke's encephalopathy; assay: Wernicke's encephalopathy findings (MRI of the brain, symptoms) during drug administration; type: in vivo, human
Method: Immediately after the patient was suspected of having Wernicke's encephalopathy, oral administration of a thiamine compound (fursultiamine (Takeda Pharmaceutical Company Limited)) at a dose of 75 mg/day was initiated (administered once a day) and continued every day.
Immediately after the patient was suspected of having Wernicke's encephalopathy, intravenous administration of a thiamine compound (fursultiamine (Takeda Pharmaceutical Company Limited)) (300 mg/day) was performed, and then (from 10 weeks after the start of drug administration), oral administration of the thiamine compound at a dose of 100 to 50 mg/day was continued.

Structure (SMILES)	change in whole blood vitamin B1 concentration ([1]; 1 hour incubation)	change in whole blood vitamin B1 concentration ([1]; 16 hours incubation)	whole blood vitamin B1 amount (vitamin B1; patient ID No. 3, 12 weeks after the start of drug administration (6 weeks after start of fursultiamine 75 mg/day oral), pyridoxamine compound continued)	whole blood vitamin B1 amount (vitamin B1; patient ID No. 6, 11 weeks after the start of drug administration (3 weeks after start of thiamine compound: 300 mg/day intravenous, then 100 to 50 mg/day oral))	symptom of Wernicke's encephalopathy ([2]; patient ID No. 3, 14 weeks after the start of drug administration (8 weeks after the start of the thiamine compound, 75 mg/day oral))	symptom of Wernicke's encephalopathy ([2]; patient ID No. 6, 11 weeks after the start of drug administration (3 weeks after the start of the thiamine compound))
Cc1ncc(CO)c(C=O)c1O.Cl [pyridoxal hydrochloride]	decrease in the vitamin B1 concentration in a manner dependent on the concentration of pyridoxal hydrochloride	decrease in the vitamin B1 concentration in a manner dependent on the concentration of pyridoxal hydrochloride	–	–	–	–
CC(=C(CCO)SSCC1CCCO1)N(C=O)Cc1cnc(C)nc1N (stereo in doubt) [fursultiamine]	–	–	135 ng/mL	150 ng/mL	disappeared	disappeared
